Measurements as given in patent publication US12697330B2, “Therapeutic methods using vadadustat” (Akebia Therapeutics, Inc., priority 2021, dated 2026).

Key:
Assay type in all cases: in vivo, human
[1] = tested on: healthy adults; experiment: Drug interaction study with co-administration of vadadustat in healthy adults; conditions: healthy adults; extent of increase
From the text: Sulfasalazine. Other Breast Cancer Resistance Protein Substrates. and Probenecid. Exposures to sulfasalazine (moderately) and mesalamine (mildly) were increased with co-administration of vadadustat based on a study in healthy adults. In subjects taking vadadustat, sulfasalazine and other clinically relevant substrates of the breast cancer resistance protein (BCRP) transporter (e.g., sulfasalazine, methotrexate, mitoxantrone, imatinib, irinotecan, lapatinib, topotecan, tenofovir, glecaprevir, pibrentasvir, or sofosbuvir), caution should be taken during the study. Probenecid, an inhibitor of UDP-glucuronosyltransferase (UGT) and the organic anion transporter (OAT)1/3 transporters, increased vadadustat area under the curve and is prohibited during the study.

[2] = Phase 1b study: pharmacokinetics of vadadustat and its metabolites in plasma of hemodialysis subjects with anemia associated with CKD
Procedure: The primary objective of the study was to assess the pharmacokinetics (PK) of vadadustat 600, 750, and 900 mg daily, and IV ESA (darbepoetin alfa or epoetin alfa) in hemodialysis subjects with anemia associated with CKD. Additional objectives included to evaluate the pharmacodynamics (PD) of vadadustat 600, 750, and 900 mg daily, and IV ESA (darbepoetin alfa or epoetin alfa) in hemodialysis subjects with anemia associated with CKD and to assess the safety and tolerability of vadadustat 600, 750, and 900 mg daily and IV ESA (darbepoetin alfa or epoetin alfa) in hemodialysis subjects with anemia associated with CKD.
Study Design. This was a Phase 1b, randomized, open-label study to evaluate the PK, PD, safety, and tolerability of vadadustat 600, 750, or 900 mg daily, or ESA (darbepoetin alfa or epoetin alfa) in hemodialysis subjects with anemia associated with CKD. The study included a 28-day Screening and Randomization period, a 10-day Treatment Period, and a 30-day Safety Follow up Period after the last dose of study drug (vadadustat or ESA). For subjects randomized to vadadustat, study duration also included an ESA washout period of a minimum of 5 days for epoetin alfa or 9 days for darbepoetin alfa or 9-day ESA Washout period prior to dosing on Day 1.
A total of 46 subjects were enrolled in the study. Written informed consent were obtained before any screening procedures were performed. Subjects were screened within 28 days prior to randomization. Eligible subjects were randomized in a 2:2:2:1 ratio to 1 of 4 treatment groups (600, 750, or 900 mg vadadustat QD, or ESA. Randomized subjects began their 10-day Treatment Period within 36 days of initiating screening.
Eligible subjects were randomly assigned in a 2:2:2:1 ratio to 1 of 4 treatment groups: Group 1—vadadustat 600 mg once daily (QD); Group 2—vadadustat 750 mg QD; Group 3—vadadustat 900 QD; and Group 4—IV ESA. Randomization was stratified by the mean weekly ESA dose calculated over a period of 8 weeks prior to the randomization visit. For darbepoetin, the groups were divided into low dose darbepoetin alfa group (<0.5 μg/kg/week) and high dose darbepoetin alfa group (>0.5 to <1.5 μg/kg/week). For epoetin, the groups were divided into low dose epoetin alfa group (≤90 U/kg/week) and high dose epoetin alfa group (>90 to <300 U/kg/week).
Subjects began dosing on Day 1 and took vadadustat at approximately the same time each day for a total of 10 days. On Day 1 and Day 8, subjects took vadadustat after all predose procedures are completed and within 30 minutes prior to the start of dialysis so that the 1-hour post dose blood sample for PK and PD was collected during dialysis. Vadadustat could be taken with or without food. Subjects were instructed to make every effort to take the drug consistently, either with or without food. Subjects were instructed to swallow the tablets whole with water.
PK and EPO Sample. For each vadadustat treatment group, blood samples for vadadustat PK (and its metabolites) and EPO were collected at the following time points: Day 1: predose, and at 1, 2, 3, 4, 5, 8, and 11 hours post dose; Day 2: 24 hours (−2 hours) post Day 1 dose; Day 6: blood sample for EPO analysis only was collected predose on Day 6; Day 8: predose, and at 1, 2, 3, 4, 5, 8, 11 hours post dose, Day 10 or EOT: predose. For the ESA treatment group, blood samples for analysis of EPO were collected at the following time points: Day 1: predose, and at 0.25, 1, 2, 3, 4, 5, 8, and 11 hours post dose; Day 2: 24 hours (−2 hours) post Day 1 dose.
Primary Endpoints. […]

[3] = Phase 2 study, Main Study: pharmacokinetics (vadadustat and vadadustat-O-glucuronide concentration); conditions: Week 1, Week 1+1 day, and Week 11
Procedure: PK/PD Endpoints. An exposure-response analysis of vadadustat and PD measures were conducted as deemed appropriate. The PK parameters included (but were not limited to) the following: area under concentration-time curve from dosing to last measurable concentration (AUClast), area under concentration-time curve from dosing to infinity (AUCinf), Cmax, apparent total body clearance (CL/F), apparent volume of distribution (Vd/F), and terminal half-life (t1/2). The PD parameters included (but were not limited to) the following: EPO, reticulocytes, iron, ferritin, TIBC, and hepcidin.
PK population: included all randomized subjects who received study drug (vadadustat or epoetin alfa) and had enough drug concentrations to estimate AUC and Cmax. Analysis of this population was based on the dose amount taken at the date of PK sampling for the vadadustat group.

Row | SMILES | Exposures increased with co-administration of vadadustat [1] | metabolite exposure versus dose ([2]; Day 8) | accumulation versus dose ([2]; most pronounced in the 900 mg vadadustat treatment group) | mean concentration versus time profiles, dose dependency [3]
1 | Nc1ccc(O)c(C(=O)O)c1 [mesalamine] | mildly | – | – | –
2 | O=C(O)c1cc(/N=N/c2ccc(S(=O)(=O)Nc3ccccn3)cc2)ccc1O [sulfasalazine] | moderately | – | – | –
3 | O=C(O)CNC(=O)c1ncc(-c2cccc(Cl)c2)cc1O[C@@H]1O[C@H](C(=O)O)[C@@H](O)[C@H](O)[C@H]1O [vadadustat-O-glucuronide] | – | increased in a dose-dependent manner | dose-dependent increase in accumulation | concentrations increased with dose levels
